# Laboratory results taken from patent US11149066B2, “Thrombospondin 1-binding peptide” (DAIICHI SANKYO COMPANY, LIMITED, priority 2016, dated 2021).
# Read-outs that look alike come from different tables or passages of the source. Positions of bridges follow the written chain, without caps; N, C: chain ends. Non-standard residues stand in square brackets, D forms with d. Residues, ends and D or L forms follow the SMILES beside them. Trp(6-Cl) = N[C@@H](Cc1c[nH]c2cc(Cl)ccc12)C(=O)O; 2Nal = N[C@@H](Cc1ccc2ccccc2c1)C(=O)O; Phg = N[C@H](C(=O)O)c1ccccc1; Nle = CCCC[C@H](N)C(=O)O
# Columns and labels:
# [1] = system: C57BL/6 mice; experiment: Blood flow improvement tests (femoral artery/vein ligation and excision, laser Doppler); assay type: in vivo; conditions: after 7 days of surgery; for % change (vs. vehicle): blood flow ratio ischemia/nonischemia; for %, ischemia/nonischemia: blood flow ratio of ischemic limb to non-ischemic limb, laser Doppler
# Text: (Test Example 3) Blood Flow Improvement Tests
# Seven to nine-week-old male C57BL/6 mice were purchased from Charles River Laboratories Japan Inc., and acclimated over one week by feeding with a FR-2 solid diet (produced by Funabashi Farm Co., Ltd.). The rearing facility switched between light and dark modes in a 12-hour cycle with light turning on at 7 a.m and turning off at 7 p.m. Under isofluorane inhalation anaesthesia, the left thighs of the mice were dissected, and the superficial femoral arteries and veins (from just below the deep femoral arteries to the popliteal artery and vein) were ligated and excised. After animal models were made, the test substances (Compounds 24, 28, 40 to 45, and 58) were each dissolved in a solution of 20 mM lactic acid and 5% (w/v) Lutrol, and intraperitoneally injected into mice once daily.
# (Blood Flow Improvement Test 1)
# Compound 24 (10 mg/kg)-treated group
# (Blood Flow Improvement Test 2)
# Compound 28 (10 mg/kg)-treated group
# (Blood Flow Improvement Test 3)
# Compound 40 (10 mg/kg)-treated group
# Compound 41 (10 mg/kg)-treated group
# (Blood Flow Improvement Test 4)
# Compound 42 (10 mg/kg)-treated group
# Compound 43 (10 mg/kg)-treated group
# Compound 44 (10 mg/kg)-treated group
# Compound 45 (10 mg/kg)-treated group
# (Blood Flow Improvement Test 5)
# Compound 58 (10 mg/kg)-treated group
# Blood flows were measured in ischemic (left) and non-ischemic (right) limbs using a laser Doppler perfusion imager (LDPI; PIM III, Perimed, Inc.). Blood flow values were evaluated by the ratio of ischemic limb flow to non-ischemic limb flow.
# Blood flow values from the mice were the lowest immediately after surgery and then gradually recovered. All of the test substances investigated in the animal models of this study improved blood flow recovery after surgery as compared to vehicle treatment. After 7 days of surgery, the blood flows in the test substance-treated groups were higher than in the vehicle-treated mice.
# [2] = target: human TSP1 (Homo sapiens, UniProt P07996); experiment: Cell adhesion inhibition assay (HUVEC adhesion to TSP1-coated plate); assay type: cell-based
# Experimental: As referred to herein, the TSP1 inhibitory activity refers to the activity to inhibit one or more effects of TSP1, including angiostatic effect. The TSP1 inhibitory activity is measured by a cell adhesion inhibition assay using human TSP1 and vascular endothelial cells as described hereinbelow in the Examples section. In this assay, when the 50% inhibitory concentration (IC5O) of a test substance is 200 nM or less, the test substance is determined to have TSP1 inhibitory activity.
# (Test Example 1) Cell Adhesion Inhibition Assay
# I. Materials and Reagents
# 96 well Non-treated White with clear bottom (Coster, 3632)
# BrightMax adhesive sealing films (EXCEL Scientific, WT50)
# Proteosave®SS 15 mL (Sumitomo Bakelite, MS-52150)
# Thrombospondin human platelet (Calbiochem, 605225)
# EGM-2 MV (Lonza, CC-3202): for HUVEC passaging
# Collagen coated dish (IWAKI, 4020-010): for HUVEC passaging
# Lipidure®-BL802 (NOF Corporation), 5% solution
# Albumin solution (35%) fraction V from Bovine (Sigma, A7979)
# CellTiter-Glo (Promega, G7572)
# Thrombospondin 1 vial (25 μg) was dissolved in TBS (+2 mM CaCl2; the same shall apply hereunder) to make a 200 μg/mL solution, which was diluted with TBS to a concentration of 10 μg/mL in Proteosave® 15 mL tube. The 10 μg/mL solution was dispensed into a 96 well plate at a volume of 50 μL/well (no reservoir was used since the protein easily adsorbs on it), and the plate was left to stand at 4° C. overnight.
# Lipidure® was diluted 10-fold with TBS to make a 0.5% solution. After a buffer was discarded from the plate that had been coated at the step of <Plate coat> as described above, the 0.5% solution was dispensed into all wells to be used at a volume of 100 μL/well, and the plate was left to stand at room temperature for 1 hour.
# A 0.2 μM solution of each sample was prepared using a dilution buffer (DMEM+0.5% BSA). 2 μL of the 0.2 μM solution was diluted with 500 μL, of dilution buffer to prepare a diluted sample. As a vehicle control, DMSO was diluted in the same way as the samples.
# A blocking solution was discarded from the plate that had been treated at the step of <Plate blocking> as described above, and the plate was washed three times with 150 μL/well of TBS. The washing solution used for the third washing was completely sucked out by an aspirator, and the diluted sample was dispensed into the plate at a volume of 50 μL/well. Then, the plate was left to stand at room temperature for 15 to 30 minutes.
# To maintain HUVECs, EGM2-MV and a collagen coated dish were used (the cells were ceased to be used after 10th or 1 lth passage since the cell proliferation rate declined at this stage). The cells were dispersed with 0.05% Trypsin/EDTA, harvested in DMEM/0.5% BSA, and centrifuged at 1000 rpm for 3 minutes. After removal of supernatant, the cells were washed once with a DMEM buffer. The cells were resuspended in a DMEM buffer, counted for cell number, and diluted to 10000 cells/50 μL. The cell suspension was dispensed at a volume of 50 μL/well into the plate into which the sample had been dispensed, mixed gently, and incubated at 37° C. for 2.5 hours.
# After cell adhesion was confirmed, the culture medium was completely removed by an aspirator, and 100 μL/well of DMEM/0.5% BSA was gently dispensed. Then, DMEM/0.5% BSA was completely removed by an aspirator, and 50 μL/well of DMEM/0.5% BSA was dispensed. After a white seal was applied to the bottom of the plate, 50 μL/well of CellTiter-Glo® was dispensed, and the solution was stirred for 2 minutes and left to stand at room temperature for 8 minutes. […] was detected using EnVision Xcite Multilabel Reader (produced by Perkin Elmer).
# On the basis of the measured fluorescence values, the IC50 values (nM) of the different macrocyclic polypeptides for inhibition of cell adhesion were calculated.
# [3] = HUVEC adhesion to human platelet thrombospondin-coated plate, 2.5 hours, CellTiter-Glo, read-out: Cell adhesion IC50
# [4] = HUVEC adhesion to TSP1-coated plate, read-out: cell adhesion inhibition (Table 4)
# human TSP1, sequence (P07996 19-1170 limits assumed): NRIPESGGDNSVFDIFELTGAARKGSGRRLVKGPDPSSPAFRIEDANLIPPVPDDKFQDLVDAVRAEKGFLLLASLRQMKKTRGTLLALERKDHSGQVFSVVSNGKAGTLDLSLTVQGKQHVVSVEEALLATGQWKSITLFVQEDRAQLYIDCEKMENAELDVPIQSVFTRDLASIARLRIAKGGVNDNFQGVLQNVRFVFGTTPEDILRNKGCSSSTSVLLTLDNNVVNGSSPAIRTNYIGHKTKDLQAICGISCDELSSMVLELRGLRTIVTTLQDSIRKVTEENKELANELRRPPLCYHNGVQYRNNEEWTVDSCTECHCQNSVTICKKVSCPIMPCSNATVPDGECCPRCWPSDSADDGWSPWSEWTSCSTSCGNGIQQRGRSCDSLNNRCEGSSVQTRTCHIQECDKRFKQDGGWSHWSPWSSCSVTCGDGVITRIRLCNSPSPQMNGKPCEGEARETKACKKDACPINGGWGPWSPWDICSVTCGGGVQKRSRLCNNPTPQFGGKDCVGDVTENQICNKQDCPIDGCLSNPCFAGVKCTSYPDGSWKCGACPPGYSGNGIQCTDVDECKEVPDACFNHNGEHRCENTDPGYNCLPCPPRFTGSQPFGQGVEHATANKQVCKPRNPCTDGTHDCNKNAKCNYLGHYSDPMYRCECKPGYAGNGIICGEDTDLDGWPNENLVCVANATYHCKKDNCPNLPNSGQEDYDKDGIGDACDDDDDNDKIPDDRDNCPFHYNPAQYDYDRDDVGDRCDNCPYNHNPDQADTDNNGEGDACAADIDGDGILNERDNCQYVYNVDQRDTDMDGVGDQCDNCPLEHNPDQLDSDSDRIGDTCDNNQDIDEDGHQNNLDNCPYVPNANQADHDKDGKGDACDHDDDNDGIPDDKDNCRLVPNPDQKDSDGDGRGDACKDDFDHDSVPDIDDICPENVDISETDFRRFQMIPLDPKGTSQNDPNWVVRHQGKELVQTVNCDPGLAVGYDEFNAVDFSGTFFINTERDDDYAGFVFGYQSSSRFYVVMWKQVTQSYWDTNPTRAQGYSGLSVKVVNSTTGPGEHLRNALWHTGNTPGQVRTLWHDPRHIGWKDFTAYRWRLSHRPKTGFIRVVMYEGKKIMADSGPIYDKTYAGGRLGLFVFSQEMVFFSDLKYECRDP
"IC50 [2, 3]","IC50 [2, 4]",SMILES,% change (vs. vehicle) [1],"%, ischemia/nonischemia [1]"
,,CC[C@H](C)[C@@H]1NC(=O)[C@H](Cc2ccc3ccccc3c2)NC(=O)CSC[C@@H](C(N)=O)NC(=O)[C@H](C(C)C)NC(=O)[C@H](Cc2c[nH]c3ccccc23)NC(=O)[C@H](CCCCN)NC(=O)[C@H](C(C)C)NC(=O)[C@H](Cc2ccc3ccccc3c2)NC(=O)[C@H](CC(N)=O)NC(=O)[C@H](CCCNC(=N)N)NC(=O)CNC(=O)[C@H](CO)NC1=O [Compound 28] ({CH2CO}-[2Nal]ISGRN[2Nal]VKWVC-NH2; thioether N-12),1.8%,40.79%
30.3 nM,,CC[C@H](C)[C@@H]1NC(=O)[C@H](Cc2ccc3ccccc3c2)NC(=O)CSC[C@@H](C(N)=O)NC(=O)[C@H](C(C)C)NC(=O)[C@H](Cc2c[nH]c3ccccc23)NC(=O)[C@H](CCCCN)NC(=O)[C@H](C(C)C)NC(=O)[C@H](Cc2c[nH]c3ccccc23)NC(=O)[C@H](CC(N)=O)NC(=O)[C@H](CO)NC(=O)CNC(=O)[C@H](CO)NC1=O [Compound 44] ({CH2CO}-[2Nal]ISGSNWVKWVC-NH2; thioether N-12),10.5%,41.25%
,,CC[C@H](C)[C@@H]1NC(=O)[C@H](Cc2ccc3ccccc3c2)NC(=O)CSC[C@@H](C(N)=O)NC(=O)[C@H](C(C)C)NC(=O)[C@H](Cc2c[nH]c3ccccc23)NC(=O)[C@H](Cc2c[nH]cn2)NC(=O)[C@H](C(C)C)NC(=O)[C@H](Cc2c[nH]c3ccccc23)NC(=O)[C@H](CC(N)=O)NC(=O)[C@H](CCCNC(=N)N)NC(=O)CNC(=O)[C@H](CO)NC1=O [Compound 41] ({CH2CO}-[2Nal]ISGRNWVHWVC-NH2; thioether N-12),32.7%,58.05%
,14.2 nM,CC(C)[C@@H]1NC(=O)[C@H](Cc2c[nH]c3ccccc23)NC(=O)[C@H](C(C)C)NC(=O)[C@H](C(C)C)NC(=O)[C@H](Cc2c[nH]c3ccccc23)NC(=O)[C@H](CC(=O)O)NC(=O)[C@H](CCCCN)NC(=O)CNC(=O)[C@H](CO)NC(=O)[C@H](CCCNC(=N)N)NC(=O)[C@H](Cc2ccc3ccccc3c2)NC(=O)CSC[C@@H](C(N)=O)NC1=O [Compound 99] ({CH2CO}-[2Nal]RSGKDWVVWVC-NH2; thioether N-12),,
28.1 nM,,CCCC[C@@H]1NC(=O)[C@H](Cc2c[nH]c3ccccc23)NC(=O)[C@H](CC(=O)O)NC(=O)[C@@H]2CCCN2C(=O)CNC(=O)[C@H](CO)NC(=O)[C@H]([C@@H](C)CC)NC(=O)[C@H](Cc2ccc3ccccc3c2)NC(=O)CSC[C@@H](C(N)=O)NC(=O)[C@H](C(C)C)NC(=O)[C@H](Cc2c[nH]c3ccccc23)NC(=O)[C@H](CCCCN)NC1=O [Compound 68] ({CH2CO}-[2Nal]ISGPDW[Nle]KWVC-NH2; thioether N-12),,
,11.5 nM,CCCC[C@@H]1NC(=O)[C@H](Cc2c[nH]c3ccccc23)NC(=O)[C@H](CC(=O)O)NC(=O)[C@H](CCCNC(=N)N)NC(=O)CNC(=O)[C@H](CO)NC(=O)[C@H]([C@@H](C)CC)NC(=O)[C@H](Cc2ccc3ccccc3c2)NC(=O)[C@H](C)NC(=O)CSC[C@@H](C(N)=O)NC(=O)[C@H](C(C)C)NC(=O)[C@H](Cc2c[nH]c3ccccc23)NC(=O)[C@H](CCCCN)NC1=O [Compound 80] ({CH2CO}-A[2Nal]ISGRDW[Nle]KWVC-NH2; thioether N-13),,
16.1 nM,,CC[C@H](C)[C@@H]1NC(=O)[C@H](Cc2ccc3ccccc3c2)NC(=O)CSC[C@@H](C(N)=O)NC(=O)[C@H](C(C)C)NC(=O)[C@H](Cc2c[nH]c3ccccc23)NC(=O)[C@H](CCCCN)NC(=O)[C@H](C(C)C)NC(=O)[C@H](Cc2c[nH]c3ccccc23)NC(=O)[C@H](CC(=O)O)NC(=O)[C@H](CCCNC(=N)N)NC(=O)CNC(=O)[C@H](CO)NC1=O [Compound 40] ({CH2CO}-[2Nal]ISGRDWVKWVC-NH2; thioether N-12),6.4%,46.53%
17.2 nM,,CC[C@H](C)[C@@H]1NC(=O)[C@H](Cc2ccc3ccccc3c2)NC(=O)CSC[C@@H](C(N)=O)NC(=O)[C@H](C(C)C)NC(=O)[C@H](Cc2c[nH]c3cc(Cl)ccc23)NC(=O)[C@H](CCCCN)NC(=O)[C@H](C(C)C)NC(=O)[C@H](Cc2c[nH]c3ccccc23)NC(=O)[C@H](CC(N)=O)NC(=O)[C@H](CCCNC(=N)N)NC(=O)CNC(=O)[C@H](CO)NC1=O [Compound 36] ({CH2CO}-[2Nal]ISGRNWVK[Trp(6-Cl)]VC-NH2; thioether N-12),,
,15.5 nM,CCCC[C@@H]1NC(=O)[C@H](Cc2c[nH]c3ccccc23)NC(=O)[C@H](CC(=O)O)NC(=O)[C@H](CCCNC(=N)N)NC(=O)CNC(=O)[C@H](CO)NC(=O)[C@H]([C@@H](C)CC)NC(=O)[C@H](Cc2ccc3ccccc3c2)NC(=O)[C@H]([C@@H](C)O)NC(=O)CSC[C@@H](C(N)=O)NC(=O)[C@H](C(C)C)NC(=O)[C@H](Cc2c[nH]c3ccccc23)NC(=O)[C@H](CCCCN)NC1=O [Compound 85] ({CH2CO}-T[2Nal]ISGRDW[Nle]KWVC-NH2; thioether N-13),,
26 nM,,CC[C@H](C)[C@@H]1NC(=O)[C@H](Cc2c[nH]c3ccccc23)NC(=O)CSC[C@@H](C(N)=O)NC(=O)[C@H](C(C)C)NC(=O)[C@H](Cc2c[nH]c3ccccc23)NC(=O)[C@H](CCCNC(=N)N)NC(=O)[C@H](C(C)C)NC(=O)[C@H](Cc2c[nH]c3ccccc23)NC(=O)[C@H](CC(N)=O)NC(=O)[C@H](CCCNC(=N)N)NC(=O)CNC(=O)[C@H](CO)NC1=O [Compound 11] ({CH2CO}-WISGRNWVRWVC-NH2; thioether N-12),,
11.5 nM,,CC(C)[C@@H]1NC(=O)[C@H](Cc2c[nH]c3ccccc23)NC(=O)[C@H](CCCCN)NC(=O)[C@H](C(C)C)NC(=O)[C@H](Cc2c[nH]c3ccccc23)NC(=O)[C@H](CC(N)=O)NC(=O)[C@H](CCCNC(=N)N)NC(=O)CNC(=O)[C@H](CO)NC(=O)[C@H](c2ccccc2)NC(=O)[C@H](Cc2ccc3ccccc3c2)NC(=O)CSC[C@@H](C(N)=O)NC1=O [Compound 49] ({CH2CO}-[2Nal][Phg]SGRNWVKWVC-NH2; thioether N-12),,
